Data published in patent publication US20170000784A1, “Autophagy Inhibitors” (priority 2013, published 2017).
Like-named read-outs stand apart in the source and are kept apart here.

Key:
[1] = test system: U2OS cells stably expressing tfLC3; type: cell-based; details: for autophagy inhibition at 3 μM: FIG. 10B
Procedure: U2OS cells stably expressing tfLC3 were seeded at 50,000 cells per well in 5A McCoy's with 10% FBS on number 1.5 coverglass in 24-well tissue culture dishes. After 24 hours, cells were treated with known autophagy controls rapamycin [100 nM] (Millipore, 553210-10 mg), bafilomycin A1 [100 nM] (AG Scientific, B-1183), AZD-8055 [100 nM](Selleck Chemicals, S1555), and CQ [50 μM] as well as autophagy inhibitors (CQ, QN, Example 7, and Example 27) at doses of 0.1 μM, 0.25 μM, 0.5 μM, 1 μM, 5 μM, 15 μM, 25 μM, and 50 μM for three hours. Cells were washed with 1×PBS, fixed with 3.7% formaldehyde, and nuclei were stained with Hoechst 33342 (2 μg/mL). Coverglass was inverted onto microscope slides using mounting gel. Cells were imaged using a 60× oil-immersion objective on a Nikon Eclipse Ti fluorescent microscope and 10 images at each dose were taken for quantification. Image processing and quantification were completed with the Nikon NIS Elements software. To quantify, images were deconvolved using a 2D blind deconvolution function with one iteration and settings of normal cell thickness and normal noise level. Regions of interest (ROI) were drawn around the edges of each cell. Intensity thresholds were set to include all pixels equal to or greater than the intensity above the mean background fluorescence using the separation feature and restrictions set for puncta size (FIG. 9). Objects within the threshold for each ROI were quantified using an automated object count function and exported for analysis. Although other parameters were also collected, the mean intensity of the objects was averaged between the 10 images of each dose, or approximately 50 cells (FIGS. 9B and 9C). Representative images were chosen for each dose and the lookup table (LUT) brightness' were set based on the mean intensity of the DMSO control (FIGS. 8A and 10A). The mean intensity of each image was divided by the mean intensity of the DMSO control to control for brightness and the LUTs were adjusted by the percent difference to avoid background and for consistent visualization. All other settings (gain, exposure time, and lamp strength) were kept the same across all conditions. […] Mean intensity was further chosen for quantification as it accurately represents both the increase in puncta number and area when the accumulation of autophagosomes partially fuse (FIG. 9C, 9D). Quantification of the red channel (RFP-LC3 puncta) was performed to determine the total autophagic vesicle population (both autophagosomes and autolysosomes).
Autophagy inhibition can be measured by fluorescent microscopy using cells expressing a tandem fluorescent (RFP-GFP) labeled LC3 sensor (tfLC3). Upon autophagosome nucleation, LC3 is localized to the autophagic membrane and the overlapping GFP and RFP fluorescence appears as yellow puncta. After the autophagosome matures, it fuses with the lysosome, forming an autolysosome. The GFP in this LC3 sensor is pH labile and becomes quenched by the acidic environment of the autolysosome. However, the RFP remains stable; therefore, autolysosomes are indicated by red puncta. Accordingly, when autophagy is inhibited at the final stage (completion), the abundance of yellow puncta is expected to increase proportionally to the level of autophagy inhibition.
Cells were then fixed and imaged by fluorescent microscopy.

[2] = test system: nine melanoma cell lines (A375, UACC-91, UACC-257, UACC-502, UACC-903, UACC-1308, UACC-1940, UACC-2534, UACC-3291); assay: Cell viability (IC50) screen, panel of nine melanoma cell lines; type: cell-based; details: Homo sapiens, read-out: IC50 values, range over the melanoma cell lines
Procedure: U2OS cells were seeded at 500 cells per well in 5A McCoy's with 10% FBS in 96-well clear bottom, black-walled tissue culture plates. All melanoma cell lines (A375, UACC-91, UACC-257, UACC-502, UACC-903, UACC-1308, UACC-1940, UACC-2534, and UACC-3291) were seeded at 5,000 cells per well in RPMI 1640 with 10% FBS in 96-well clear bottom, black-walled tissue culture plates. After 24 hour incubation, cells were treated with VATG compounds in triplicate with a 10-point half log dose response from […] for 24 and 48 hours. Medium was removed and 2× CellTiter Glo (Promega, G7571) reagent mixed 1:1 with Opti-MEM (Invitrogen, 31985062) was added at 100 μL per well and incubated at room temperature for 15 minutes while rocking. 75 μL per well was moved to a white-walled 96-well plate and luminescence quantified using the 96 LUM program on an EnVision plate reader (PerkinElmer) and exported for analysis. All triplicate data points were averaged and luminescent readings for each treatment were normalized to vehicle control for change in viability. Dose response curves were input into SigmaPlot for IC50 calculations (Systat Software Inc).
Next, the sensitivity of each melanoma cell line to CQ, QN, Example 7, and Example 27 was assessed.

[3] = test system: P. falciparum NF54 (CQ sensitive); assay: In vitro P. falciparum asexual blood stage, [3H]-hypoxanthine, NF54; type: cell-based, Plasmodium falciparum; details: for antimalarial activity score: NF54 strain; for IC50: Plasmodium falciparum, NF54, Erythrocyte, read-out: Antimalarial activity (IC50) P. falciparum NF54 (CQ sensitive)
Procedure: In this example, compounds of Formula A, Formula A^1, Formula A^2, Formula A^3 or pharmaceutically acceptable salts thereof, are tested in Plasmodium sp infected cells to determine the effectiveness of these compounds to determine their anti-malarial activity. Exemplary compounds, Example 7 and Example 27 (See Table 1) were dissolved in DMSO at 10 mg/mL and 4× compound dilutions were prepared in screening medium [RPMI 1640 with no hypoxanthine, HEPES (5.94 μg/L), NaHCO3 (2.1 μg/L), Neomycin (100 μg/mL), and Albumax II (5 μg/L)]. Human red blood cells were prepared without and with stock cultures of P. falciparum strains, NF54 (Chloroquinine (CQ) sensitive) and K1 (CQ resistant), to a parasitemia of 0.3% and hematocrit of 2.5%. Using a 96-well plate, 100 μL/well of red blood solution was added along with a 2-fold serial dilution of Example 7 and Example 27. Plates were incubated at 37° C. with 93% N2, 4% CO2, and 3% O2 for 48 hours, after which 50 μL of [3H]-hypoxanthine (0.5 μCi) was added to each well. After 24 hours, plates were harvested with a Betaplate™ cell harvester (Wallac, Zurich Switzerland) which transferred the red blood cells onto a glass fiber filter and washed with distilled water. Dried filters were inserted into a plastic foil with 10 mL of scintillation fluid and counted in a Betaplate™ liquid scintillation counter (Wallac, Zurich Switzerland). Results were obtained as counts per minute (cpm) per well at each concentration.

[4] = test system: P. falciparum K1 (CQ resistant); assay: microbe, parasite or virus in culture; type: cell-based, Plasmodium falciparum; details: for antimalarial activity score: K1 strain; for IC50: Plasmodium falciparum, K1, Erythrocyte, read-out: Antimalarial activity (IC50) P. falciparum K1 (CQ resistant)
Procedure: In this example, compounds of Formula A, Formula A^1, Formula A^2, Formula A^3 or pharmaceutically acceptable salts thereof, are tested in Plasmodium sp infected cells to determine the effectiveness of these compounds to determine their anti-malarial activity. […] After 24 hours, plates were harvested with a Betaplate™ cell harvester (Wallac, Zurich Switzerland) which transferred the red blood cells onto a glass fiber filter and washed with distilled water. Dried filters were inserted into a plastic foil with 10 mL of scintillation fluid and counted in a Betaplate™ liquid scintillation counter (Wallac, Zurich Switzerland). Results were obtained as counts per minute (cpm) per well at each concentration.

[5] = cell viability, nine melanoma cell lines

## CCN(CC)CCCC(C)Nc1c2ccc(Cl)cc2nc2ccc(OC)cc12 (centres unmarked) [Quinacrine, quinacrine, reference compound]
[1]
  Potency (EC/ECCQ): ~60
  autophagy inhibition at 3 μM: inhibit autophagy
[1]; U2OS-tfLC3, ten-point dose response, FIG. 8B
  concentration giving a significant increase in mean intensity of autophagic puncta: 0.25 µM
[1]; concentration with statistically significant increase in puncta number over vehicle control, three hours
  Effective Concentration (EC): 0.25 µM
[2]; [5]
  IC50: 1900 to 3900 nM

## COc1ccc2nc3cc(Cl)ccc3c(NCCCCN3CCN(C)CC3)c2c1 [Example 7, 6-Chloro-2-methoxy-N-(4-(4-methylpiperazin-1-yl)butyl)acridin-9-amine]
[1]
  Potency (EC/ECCQ): 150
  fold more potent at autophagy inhibition than QN: 2
  autophagy inhibition at 3 μM: inhibit autophagy
[2]; [5]
  IC50: 400 to 2700 nM
[3]
  antimalarial activity score: good activity (good activity: IC50<50 ng/mL)
[3]; in vitro, infected human red blood cells
  IC50: 4 nM
[4]
  antimalarial activity score: good activity (good activity: IC50<50 ng/mL)
  IC50: 23 nM

## CN1CCN(CCNc2c3c(nc4cc(Cl)ccc24)CCCC3)CC1 [Example 27, 6-Chloro-N-(2-(4-methylpiperazin-1-yl)ethyl)-1,2,3,4-tetrahydroacridin-9-amine]
[1]
  autophagy inhibition at 3 μM: inhibit autophagy
[1]; relative potency score versus chloroquine, greater than one = more potent than CQ
  Potency (EC/ECCQ): 3
[2]
  IC50: 15000 to 42000 nM
[3]
  antimalarial activity score: low activity (low activity: IC50 50-1000 ng/mL)
  IC50: 323 nM
[4]
  antimalarial activity score: low activity (low activity: IC50 50-1000 ng/mL)
  IC50: 131 nM
